# Laboratory results as given in patent US20240299542A1, “NATURAL KILLER CELLS ENGINEERED TO REDUCE OR ELIMINATE CBL-B AND USES THEREOF” (City of Hope, priority 2021, published 2024).
# Key:
# Cbl-b [1] = experiment: Cbl-b protein by immunoblot after JAK or AKT inhibitor pretreatment and IL-15/IL-2 activation of primary NK cells; format: cell-based, human; conditions: 90 min pretreatment at various concentrations, then IL-15 (10 ng/ml) 24 h, vs vehicle control
# Experimental: FIGS. 2A-2E depict the results of a study showing that JAK-STAT and AKT pathways mediate upregulation of Cbl-b in NK cells. (FIG. 2A) Primary human NK cells were pretreated with the JAK3 inhibitor CP-690550 and the JAK1/2 inhibitor AZD1480 at various concentrations for 90 min prior to a 24 h activation by IL15 (10 ng/ml). NK cells were then harvested for quantification of Cbl-b protein expression by immunoblot analysis. Data are representative of 6 donors performed in a similar fashion. Densitometric quantification assessing the ratio of the Cbl-b protein to β-actin protein levels for 6 donors is summarized in (FIG. 2B) and (FIG. 2C). […] Data are representative of 5 donors performed in a similar fashion. Densitometric quantification assessing the ratio of the Cbl-b protein levels to β-actin protein levels for 5 donors is summarized in (FIG. 2E). *P<0.05, **P<0.01, ***P<0.001 by One-way ANOVA or Student's two-tailed paired t-test. Data are presented as mean±SEM.
# (§1) Immunoblotting. Cells were harvested and suspended in RIPA lysis buffer (Thermo Fisher Scientific) on ice for 20 minutes. Equal amount of protein was resolved by 5-15% Criterion TGX gel (Bio-Rad) and then transferred onto a Nitrocellulose (NC) or PVDF membrane (Thermo Fisher Scientific). The membrane was incubated with a primary antibody at 4° C. overnight and an IRDye secondary antibody (Li-COR Biosciences) for 1 hour at room temperature. The immunoblots were visualized with Odyssey CLx Imager (Li-COR Biosciences). Densitometric analysis was performed to quantify intensity of gel bands with Image J (National Institutes of Health).
# (§2) Since IL-15 utilizes select JAK-STAT proteins to initiate cellular activation, we pretreated primary NK cells with the JAK3 inhibitor CP-690550 (22) or the JAK1/2 inhibitor AZD1480 (23) in increasing concentrations prior to IL-15 stimulation then Cbl-b expression level was evaluated. […] As K562 cells were also able to induce expression of Cbl-b in primary human NK cells (FIG. 1B), we repeated the inhibitor experiments under the K562 cell stimulation.
# Cbl-b [2] = experiment: Cbl-b protein by immunoblot after inhibitor pretreatment and K562 co-culture of primary NK cells; format: cell-based, human; conditions: 10 uM, 90 min pretreatment, 24 h co-culture with K562 (E/T=10:1), vs vehicle control
# Experimental: FIG. 7A Primary NK cells were pretreated with AZD1480 (10 uM), CP-690550 (10 uM) or Afuresertib (10 uM) for 90 min prior to a 24 h cocultured with K562 cells (E/T=10:1). The immunoblot data are representative of 3 donors in a similar fashion. Densitometric quantification assessing the ratio of Cbl-b protein levels to β-actin protein levels for 3 donors is summarized in FIG. 7B. *P<0.05, **P<0.01; ns, not significant. Data are presented as mean±SEM.
# as §1, §2
# p-STAT5 = p-STAT5 by immunoblot in IL-15-activated NK cells pretreated with Mertk inhibitors; format: cell-based, human; conditions: 5 uM, 90 min pretreatment, then IL-15 (10 ng/ml) 30 min, vs no inhibitor
# Experimental: FIGS. 5A-5D depict the results of a study showing that Cbl-b interacts with and regulates phosphorylation of Mertk in primary human NK cells. (FIG. 5A) Representative intracellular flow cytometric analysis of the TAM family receptors expression in primary human NK cells. Summarized data are shown from 6 donors. IgG1 is the isotype for Tyro3 and Axl, while IgG2 for Mertk. (FIG. 5B) The level of Mertk phosphorylation and Cbl-b in Cbl-b siRNA- or Scr siRNA-transduced primary human NK was measured by immunoblot analysis. Data presented are representative of five independent experiments. […] Data presented are representative of 4 donors performed in a similar fashion and are summarized in the panel below the representative flow dot plots. […]
# Immunoblotting. […] Densitometric analysis was performed to quantify intensity of gel bands with Image J (National Institutes of Health).
# The TAM receptor family consists of Tyro3, Axl and Mertk, all of which are expressed in mature mouse NK cells (25) and are molecular substrates for Cbl-b ubiquitylation both in vitro and in vivo (17). To investigate the possible relationship between Cbl-b and the TAM receptor family in primary human NK cells, we detected the expression of the three TAM receptor members in NK cells. […]
# IFN-γ = experiment: Intracellular IFN-γ flow cytometry of NK cells pretreated with Mertk inhibitors; format: cell-based, human; conditions: for percentage of intracellular IFN-γ+ cells: 5 uM, 90 min pretreatment, then IL-15 (10 ng/ml) 24 h; for IFN-γ level lower than control with no inhibitor: in the presence of IL-15
# Experimental: FIGS. 5A-5D depict the results of a study showing that Cbl-b interacts with and regulates phosphorylation of Mertk in primary human NK cells. (FIG. 5A) Representative intracellular flow cytometric analysis of the TAM family receptors expression in primary human NK cells. Summarized data are shown from 6 donors. IgG1 is the isotype for Tyro3 and Axl, while IgG2 for Mertk. (FIG. 5B) The level of Mertk phosphorylation and Cbl-b in Cbl-b siRNA- or Scr siRNA-transduced primary human NK was measured by immunoblot analysis. Data presented are representative of five independent experiments. […] Data presented are representative of 4 donors performed in a similar fashion and are summarized in the panel below the representative flow dot plots. (FIG. 5D) Primary NK cells were pretreated with the Mertk inhibitors UNC2550 or UNC2881 (5 uM) for 90 min prior to 30 min activation by IL-15 (10 ng/ml). Data presented are representative of 4 donors performed in a similar fashion. Scr-scrambled; *P<0.05; ns, not significant. Data presented as mean±SEM.
# Flow cytometry. To determine protein cell surface expression via flow cytometry, cells were stained with monoclonal antibodies at room temperature for 20 minutes and washed with FACS buffer prior to analysis using a Fortessa X-20 flow cytometer (BD Biosciences). For IFN-γ intracellular flow cytometric analysis, […] GolgiPlug (BD Biosciences) was added for 4 h before cell harvest; cells were then permeabilized and fixed using a Cytofix/Cytoperm Fixation/Permeabilization Solution Kit (BD Biosciences), followed by analysis with a Fortessa X-20 flow cytometer. Intracellular flow cytometric analysis of Mertk was performed similarly except that GolgiPlug was not added. Data was analyzed by using Flowjo V10 software (Tree Star, Ashland, OR, USA).
# The TAM receptor family consists of Tyro3, Axl and Mertk, all of which are expressed in mature mouse NK cells (25) and are molecular substrates for Cbl-b ubiquitylation both in vitro and in vivo (17). To investigate the possible relationship between Cbl-b and the TAM receptor family in primary human NK cells, we detected the expression of the three TAM receptor members in NK cells. […] However, the level of total mertk is low in human NK cells (FIG. 10B), preventing us to characterize the mechanism associated with the p-Mertk regulation by Cbl-b. Next, primary human NK cells were pretreated with or without Mertk inhibitors (UNC2550 or UNC2881), followed by IL-15 stimulation.
# Cbl-b [3] = experiment: Cbl-b protein by immunoblot after stimulation of primary human NK cells with cytokines or activating antibody; format: cell-based
# Experimental: (FIG. 1B) Enriched primary human NK cells were co-cultured with the K562 myeloid leukemia cell line (E/T ratio=10:1) for 24 h followed by immunoblot analysis. Summary data are from three independent experiments. (FIG. 1C) Primary human NK cells were treated with different concentrations of IL-15 for 24 h followed by immunoblot analysis (n=5 donors). (FIG. 1D) Equal numbers of purified CD56^+ human NK cells, CD56^bright NK cells and CD56^dim NK cells were sorted from peripheral blood mononuclear cells isolated by Ficoll, cultured and stimulated with IL-15 (20 ng/ml for 24 h) followed by immunoblot analysis. The data are representative of three independent experiments. Med, medium only; *P<0.05, **P<0.01 by two-tailed unpaired t-test or One-way ANOVA; ns, not significant. Data are presented as mean±SEM.
# FIG. 6A Enriched primary human NK cells were cocultured with Molm-13 or MV4-11 leukemia cell lines (E/T ratio=10:1) for 24 h prior to assessment of Cbl-b by immunoblot analysis. […] FIG. 6B Enriched primary human NK cells were cultured overnight with an anti-NKG2D activating antibody (clone 1D11) (10 μg/ml) or mouse IgG (10 μg/ml) as control prior to assessment of Cbl-b by immunoblot analysis. […] Data are shown summarizes four independent experiments. […] Data are shown summarizes five independent experiments. FIG. 6E The expression of Cbl-b was assessed by qRT-PCR after primary human NK cells were incubated with K562 cells (E/T ratio=10:1) for 24 h. Data are shown summarizes five independent experiments. *P<0.05, **P<0.01, compared to the shortest time point. Data are presented as mean±SEM.
# as §1
# We assessed the expression of Cbl-b protein in primary human NK cells enriched from the blood of healthy donors in response to 24-hour stimulation by different cytokines. […] Since certain tumor cells can trigger NK cell activation, we co-cultured NK cells for 24 h with different tumor cell lines in order to assess this effect on the expression of Cbl-b.
# Cbl-b [4] = experiment: Cbl-b mRNA by qRT-PCR after IL-15 or IL-2 treatment of primary human NK cells; format: cell-based; conditions: IL-15 (10 ng/ml) or IL-2 (150 IU/ml)
Compound,level of p-STAT5 (p-STAT5),percentage of intracellular IFN-γ+ cells (IFN-γ) [%],IFN-γ level lower than control with no inhibitor (IFN-γ),also measured
C[C@@H]1CCN(C(=O)CC#N)C[C@@H]1N(C)c1ncnc2[nH]ccc12 [CP-690550],–,–,–,expression of Cbl-b protein after inhibitor pretreatment (Cbl-b [1]): significant decrease; Cbl-b expression after inhibitor pretreatment under K562 stimulation (Cbl-b [2]): only the AKT1/2/3 inhibitor Afuresertib rather than either of the two JAK inhibitors
CCCCNc1ncc(C(=O)NCc2ccc(-n3ccnc3)cc2)c(NC2CCC(O)CC2)n1 (stereo not drawn) [UNC2881],decreased,5.49,approximately 3 fold,–
IL-15: Recombinant human IL-15 protein obtained from National Institutes of Health,–,–,–,"dose response of Cbl-b protein (Cbl-b [3]; different concentrations of IL-15, 24 h): did not find evidence of a dose response change; expression of Cbl-b protein (ratio to β-actin) (Cbl-b [3]; primary human NK cells, 24 h cytokine stimulation, compared to resting NK cells without cytokines): induced an increase in the expression of Cbl-b; upregulation of Cbl-b mRNA at 24 h post stimulation (Cbl-b [4]; 24 h): sustained; time of peak Cbl-b mRNA (Cbl-b [4]; compared to unstimulated NK cells): 4 h"
UNC2550,decreased,5.49,approximately 3 fold,–
